Measured values from article PMC2928581 (Nature communications, 2010).

Molecular target: TRPML1 (ML1) (Mus musculus, UniProt Q99J21)
Experiment: whole-endolysosome patch clamp, current activation
Assay type: biochemical

Chain of TRPML1 (ML1) (Q99J21 whole entry): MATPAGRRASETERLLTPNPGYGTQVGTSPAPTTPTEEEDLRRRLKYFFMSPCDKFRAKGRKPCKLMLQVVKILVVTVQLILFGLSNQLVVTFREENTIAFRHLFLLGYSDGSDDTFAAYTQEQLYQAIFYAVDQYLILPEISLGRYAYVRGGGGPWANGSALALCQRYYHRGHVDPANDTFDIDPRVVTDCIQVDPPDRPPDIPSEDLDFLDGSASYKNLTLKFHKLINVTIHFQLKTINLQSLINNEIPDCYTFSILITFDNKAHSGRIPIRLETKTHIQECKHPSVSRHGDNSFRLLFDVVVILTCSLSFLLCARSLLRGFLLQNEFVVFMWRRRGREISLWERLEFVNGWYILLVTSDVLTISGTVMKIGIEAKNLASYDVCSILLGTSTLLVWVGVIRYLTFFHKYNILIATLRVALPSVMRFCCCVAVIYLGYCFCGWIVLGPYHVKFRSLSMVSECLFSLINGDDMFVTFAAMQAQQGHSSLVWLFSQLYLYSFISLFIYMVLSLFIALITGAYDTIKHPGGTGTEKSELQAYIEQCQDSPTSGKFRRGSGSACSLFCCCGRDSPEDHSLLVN

- EC50: 48 ± 14 nM
SMILES: CCCCCCCC(=O)OC[C@H](COP(=O)(O)O[C@@H]1[C@H](O)[C@H](OP(=O)(O)O)[C@@H](O)[C@H](OP(=O)(O)O)[C@H]1O)OC(=O)CCCCCCC [PI(3,5)P2 (diC8)]
